The results in this text go back to publication PMC8388802, “Study on the Structure-Activity Relationship of an Antimicrobial Peptide, Brevinin-2GUb, from the Skin Secretion of Hylarana guentheri” (Antibiotics, 2021).

The subject of assay [1] is K. pneumoniae (ATCC 43816) biofilm. It counts as cell-based, Klebsiella pneumoniae. To be noted: ATCC 43816, 24 h. As to the method:
(§1) The anti-biofilm activities of the peptides against S. aureus (ATCC 6538), MRSA (NCTC 12493), E. faecalis (NCTC 12493), E. coli (ATCC CRM 8739), K. pneumoniae (ATCC 43816), and P. aeruginosa (ATCC CRM 9027) were evaluated.
(§2) The bacteria were inoculated in a different medium (Gram-positive bacteria were in TSB and Gram-negative bacteria were in LB) overnight, and the subculture was conducted in the same medium. When the bacteria reached a specific density, 100 µL of the dilution was added to each well of the 96-well microplate. Then 1 µL of peptide at a series of concentrations, the same concentration in the antimicrobial assay, were added into the well together with the bacteria. The plates were put into a moist shaking incubator with a speed of 200 rpm, and the temperature was set at 37 ℃. After a 24-h incubation, the liquid in the wells was aspirated, and each was washed twice by 100 µL PBS. One hundred µL of methanol were added into each well to stabilise the biofilm. After air-drying, 100 µL crystal violet was used to dye the biofilm, and they were dissolved in the 100 µL glacial acidic acid after drying. The solutions were transferred to a new microplate, and the absorbance of each well was tested by a microplate reader (EL808, Biolise BioTek Winooski, Minneapolis, MN, USA) at 595 nm wavelength. MBIC was the minimum concentration of the peptide showing no biofilm formation.
(§3) The bacteria were inoculated in a different medium (Gram-positive bacteria were in TSB and Gram-negative bacteria were in LB) overnight, and the subculture was conducted in the same medium. When the bacteria reached a specific density, 100 µL of the dilution was added to each well of the 96-well microplates. The plates were put into a moist shaking incubator with a speed of 200 rpm and the temperature was 37 ℃. After a 24 h incubation, the liquid in the wells was aspirated and they were washed twice by 100 µL PBS of each well. The peptides with the same concentrations were diluted in the corresponding medium and 100 µL were added into each well. After a 24-h incubation, the liquid in the wells was aspirated and they were washed twice by 100 µL PBS. One hundred µL of methanol were added into the wells to stabilise the biofilms. After being air-dried, 100 µL crystal violet was used to dye the biofilm, and they were dissolved in the 100 µL glacial acidic acid after drying. The solutions were transferred to a new microplate, and the absorbance of each well was tested by a microplate reader (EL808, Biolise BioTek Winooski, Minneapolis, USA) at 595 nm wavelength.

Assay [2] concerns P. aeruginosa (ATCC CRM 9027). It counts as cell-based, Pseudomonas aeruginosa. The method, then:
(§4) The method of antimicrobial assay is based on the Methods for Dilution Antimicrobial Susceptibility Tests for Bacteria that Grow Aerobically from the Clinical and Laboratory Standards Institute (CLSI).The antimicrobial activities of peptides were evaluated against Gram-positive bacteria S. aureus (ATCC 6538), MRSA (NCTC 12493), E. faecalis (NCTC 12493), Gram-negative bacteria E. coli (ATCC CRM 8739), K. pneumoniae (ATCC 43816), P. aeruginosa (ATCC CRM 9027), yeast C. albicans (ATCC CRM 10231) and clinical isolates MRSA (B042 V2E1 A), E. coli (ATCC BAA-2340), K. pneumoniae (ATCC BAA-1705), P. aeruginosa (B004 V2S2 B).
(§5) At the first stage of the assay, 20 μL bacteria were cultured in 100 mL Mueller Hinton Broth (MHB) or Yeast Extract–Peptone–Dextrose broth (YPD-B), respectively, and was incubated overnight. Then, microorganisms were subcultured in 20 mL fresh MHB or YPD-B to achieve cultures in the logarithmic phase (1 × 10^8 CFU/mL), which can be verified by optical density (OD) (The OD of Gram-positive bacteria is 0.23, OD of Gram-negative bacteria is 0.4, and OD of yeast is 0.15), and viable cell counts. Then, the medium was used to dilute the cultures to specific cell densities (Gram-negative and Gram-positive bacteria: 5 × 10^5 CFU/mL; yeast: 1 × 10^6 CFU/mL), which were the final concentrations of bacterial suspensions used in the assay. The peptides were dissolved in DMSO to reach a final concentration of 512 µM. A series of two-fold dilutions ranging from 512 µM to 1 µM were dosed in the 96-well plates.
(§6) Antimicrobial assays were conducted in 96-well plates, which were divided into five groups, including a negative control group (PBS), a positive control group (20 μg/mL norfloxacin for bacteria and 10 μg/mL amphotericin B for yeast), vehicle control (1% DMSO), blank control (MHB or YPD-B), and a peptide group. Each microorganism had five repetitions, and each well contained 1 µL corresponding solution and 99 µL culture. After incubation at 37 °C overnight, the absorbance of each well was tested by a microplate reader (EL808, Biolise BioTek Winooski, Minneapolis, USA) under a 550 nm wavelength. The MIC is the lowest concentration at which no bacterial growth can be observed.
(§7) The next day, 10 µL of every clear well was taken out to be cultured on a Mueller Hinton Agar (MHA) plate and incubated at 37 °C for 16–20 h. The MBC is the lowest concentration without any bacterial colonies, which means at this concentration, the peptide reduces the viability of the pathogen by more than 99.9%.

Assay [3] has as its system P. aeruginosa (B004 V2S2 B). It counts as cell-based, Pseudomonas aeruginosa. As to the method:
as §4, §5, §6, §7

The next assay has as its system E. faecalis (NCTC 12493). It counts as cell-based, Enterococcus faecalis. The method, then:
as §4, §5, §6, §7

The next assay concerns S. aureus (ATCC 6538). It counts as cell-based, Staphylococcus aureus. As to the method: as §4, §5, §6, §7
The test system of assay [4] is C. albicans (ATCC CRM 10231). The class given is cell-based, Candida albicans. As to the method:
as §4, §5, §6, §7

In assay [5] the test system is E. faecalis (NCTC 12493) biofilm. It counts as cell-based, Enterococcus faecalis. To be noted: NCTC 12493, 24 h. The method, then:
as §1, §2, §3

The test system of assay [6] is P. aeruginosa (ATCC CRM 9027) biofilm. It counts as cell-based, Pseudomonas aeruginosa. To be noted: ATCC CRM 9027, 24 h. As to the method: as §1, §2, §3
For assay [7], the system named is S. aureus (ATCC 6538) biofilm. The class given is cell-based, Staphylococcus aureus. Conditions: ATCC 6538, 24 h. As to the method: as §1, §2, §3

Converted amounts (≈) assume the structure as drawn. Where a SMILES comes first, the peptide text is derived from it. Bounds are passed on as bounds.

`CC[C@H](C)[C@H](NC(=O)[C@@H](NC(=O)CN)C(C)C)C(=O)N[C@H](C(=O)N[C@@H](CCCCN)C(=O)N[C@H](C(=O)N[C@@H](CC(C)C)C(N)=O)[C@@H](C)O)[C@@H](C)CC` [Peptide 7-tB2U-K] (H-GVIIKTL-NH2): the MBEC was greater than 512 µM in assay [1], greater than 512 µM in [5], greater than 512 µM in assay [6] and 512/>512 μM in assay [7]. For the same molecule, the MBIC in assay [1] was greater than 512 µM; in assay [5], greater than 512 µM; in assay [6], greater than 512 µM; in assay [7], 512/>512 μM. The MBC (in assay [2]; in assay [3]; with E. faecalis (NCTC 12493); in the assay on S. aureus (ATCC 6538); in assay [4]) was greater than 512 µM throughout. Further, the MIC was greater than 512 µM in [2]; greater than 512 µM in assay [3]; greater than 512 µM in the assay with E. faecalis (NCTC 12493); 512 µM (≈ 380 µg/mL) in the assay on S. aureus (ATCC 6538); greater than 512 µM in [4].

Take `CC[C@H](C)[C@H](NC(=O)[C@@H](NC(=O)CN)C(C)C)C(=O)N[C@H](C(=O)N[C@@H](CCCCN)C(=O)N[C@H](C(=O)N[C@@H](CC(C)C)C(=O)N[C@@H](CCCCN)C(=O)NCC(=O)N[C@@H](C)C(=O)N[C@@H](C)C(=O)N[C@@H](CCCCN)C(=O)N[C@H](C(=O)N[C@H](C(N)=O)C(C)C)[C@@H](C)O)[C@@H](C)O)[C@@H](C)CC` [Peptide 14-tB2U-K] (H-GVIIKTLKGAAKTV-NH2): the MBEC in assay [1], in [5], in assay [6] and in assay [7] was greater than 512 µM in each case. The MBIC in assay [1], in [5], in [6] and in [7] was greater than 512 µM throughout. Also, the MBC (in assay [2]; in [3]; with E. faecalis (NCTC 12493); in the assay on S. aureus (ATCC 6538); in assay [4]) was greater than 512 µM in each case. Besides, the MIC in [2] is greater than 512 µM; in assay [3], greater than 512 µM; against E. faecalis (NCTC 12493), greater than 512 µM; against S. aureus (ATCC 6538), 256 µM (≈ 358 µg/mL); in assay [4], greater than 512 µM.

As to `CC[C@H](C)[C@H](NC(=O)[C@@H](NC(=O)CN)C(C)C)C(=O)N[C@H](C(=O)N[C@@H](CCCCN)C(=O)N[C@@H](CCCCN)C(=O)N[C@@H](CC(C)C)C(=O)N[C@@H](CCCCN)C(=O)NCC(=O)N[C@@H](C)C(=O)N[C@@H](C)C(=O)N[C@@H](CCCCN)C(=O)N[C@@H](CCCCN)C(=O)N[C@H](C(=O)N[C@@H](C)C(=O)N[C@@H](C)C(=O)N[C@@H](CCCCN)C(=O)N[C@@H](CC(C)C)C(=O)N[C@@H](CC(C)C)C(N)=O)C(C)C)[C@@H](C)CC` [tB2U-6K] (H-GVIIKKLKGAAKKVAAKLL-NH2), the MBEC in assay [1], in assay [5], in assay [6] and in assay [7] was greater than 512 µM each time. For the same molecule, the MBIC in assay [1] amounted to 32 µM; in [5] it was 64 µM; in assay [6] it was 32 µM; in assay [7], 64 µM. Besides, the MBC in assay [2] is 16 µM (≈ 31.2 µg/mL); in assay [3], 64 µM (≈ 125 µg/mL); in the assay with E. faecalis (NCTC 12493) it was 64 µM (≈ 125 µg/mL); with S. aureus (ATCC 6538) it was 32 µM (≈ 62.4 µg/mL); in [4], 256 µM (≈ 499 µg/mL). Besides, the MIC was found to be 16 µM (≈ 31.2 µg/mL) in assay [2]; 64 µM (≈ 125 µg/mL) in assay [3]; 64 µM (≈ 125 µg/mL) in the assay with E. faecalis (NCTC 12493); 32 µM (≈ 62.4 µg/mL) in the assay on S. aureus (ATCC 6538); 256 µM (≈ 499 µg/mL) in assay [4].
